{"source": "patent US10471118B2", "about": "“Retinylamine derivitives for treatment of ocular disorders” (CASE WESTERN RESERVE UNIVERSITY, priority 2014, dated 2019)", "key": {"ARPE19 cells": {"system": "ARPE19 cells", "assay": "ARPE19 cell uptake", "assay_type": "cell-based, human", "conditions": "10 μM, 16 h, compared with Ret-NH2", "method": "The ARPE19 cells (human RPE cells purchased from American Type Culture Collection) were plated in 6-well plates using Dulbecco's Modified Eagle Medium (DMEM) and allowed to grow to 90% confluency. The cells were then incubated with DMEM containing 10 μM derivatives for 16 hours under dark room conditions. Control group was cell without drug. Medium was removed and cells were washed three times by PBS after 16 h of incubation. Cells were then collected. Samples were treated with 400 μl of methanol, homogenized at 37° C. for 1 h, followed by a centrifugation. The 100 μl of the supernatant was analyzed by reverse phase HPLC. Reverse-phase HPLC (analytical C18 reverse column; 5 μm; 250 mm×4.6 mm; flow rate of 1.0 mL/min; 60:40 acetonitrile:H2O (v:v) with 0.05% trifluoroacetic acid; detection at 325 nm) was utilized to determine retinylamine or its derivative in […]."}, "Caco-2 cells": {"system": "Caco-2 cells", "assay": "Caco-2 cell monolayer transport", "assay_type": "in vitro ADME, human", "conditions": "500 μM apical, PBS pH 6, within 24 h, compared with Ret-NH2", "method": "1. Coating and preparing culture inserts for seeding: Rat tail collagen was diluted 1:9 with 0.5% acetic acid. The resulting solution (200 ul) was added to each insert to coat the surface. The inserts were air-dried overnight, followed by a UV irradiation for 45 min to sterilize the inserts. 2. Seeding cells onto an insert: A concentration of 4×10^5 cells/well EMEM solution containing 20% FBS was added to the precoated insert. Another 2 ml of fresh EMEM media was added to the other side (bottom). The media was changed after 1 day of incubation and every other day after that. The cells were cultured for 21 days until they were mature. 3. Transport experiment: The media was aspirated out. The cell monolayers were washed with PBS three times. Cells were further incubated with PBS for 1 h under 37° C. to allow them to release all the materials that may be taken up during incubation. PBS solution was removed and the prodrug solution (500 μM in 2.0 ml PBS (pH=6) solution) was loaded to the apical side. The basolateral side was loaded with 2.5 ml fresh PBS solution. The plates were incubated under 37° C. Samples of 200 μl were withdrawn from the basolateral side at several time points within 24 h. The drug release amount was determined by UV spectrometer."}, "[1]": {"assay": "Storage stability of RVG and Ret-NH2", "assay_type": "physicochemical", "source_text": "The synthesis was straightforward, and Ret-NH2 reacted with fluorenylmethyloxycarbonyl (Fmoc) protected amino acids or peptides in the presence of coupling agents. The Fmoc group then was removed using 20% piperidine in […] solution to give target molecules. The retinylamine derivatives were characterized by ^1H-NMR, ^13C-NMR and mass spectroscopy. The retinylamine derivatives had the purity over 95% as determined by HPLC except 3m Ret-Gly-Gly (RGG) with the purity of 90% (see SI). We tested the stability of RVG. Less than 5% degradation was observed when RVG was stored in the desiccator under vacuum at r.t. for 2 months, while 95% of Ret-NH2 decomposed under the same condition within 1 week."}, "[2]": {"assay": "Pharmacokinetics of PEG-GFL-NH-Ret in C57BL mice (N-retinylamides in liver and eye)", "assay_type": "in vivo", "conditions": "1 mg equivalent Ret-NH2 per mouse oral, especially first 8 h after gavage", "method": "Female C57BL mice (4-week-old) were randomly divided into two dosing groups. One group of mice was gavaged with one dose of Ret-NH2 (1 mg per mouse, dissolved in DMSO), and the other group of mice was also gavaged once with PEG-GFL-NH-Ret (17.5 mg per mouse, equivalent to 1 mg Ret-NH2 per mouse). Then at each predetermined time point (0, 4 h, 8 h, 24 h, 48 h and 72 h after drug administration), 6 mice were sacrificed. The liver and eye balls were collected to determine tissue N-retinylamide content for pharmacokinetic analysis. A portion of the liver tissue (ca. 0.5 g) was weighed, homogenized in 2 mL 1:1 ethanol:PBS solution and the eye balls were similarly processed. N-Retinylamides were extracted in 4 mL hexane, concentrated, and reconstituted to a 300 μL volume. Normal-phase HPLC (Agilent-Zorbax SIL; 5 μm; 4.5×250 mm; flow rate of 1.4 mL/min; 80:20 hexane:ethyl acetate (v:v); detection at 325 nm) was utilized to determine N-retinylamide concentration in these tissues."}, "[3]": {"assay": "Storage stability of PEG-GFL-NH-Ret conjugate in solid form", "assay_type": "physicochemical", "conditions": "room temperature, same condition", "source_text": "The number and weight-average molecular weights of polymer conjugate was 21 and 22 kDa (Mw/Mn=1.05), as determined by size exclusion chromatography. […] The structure of PEG-GFL-NHRet was preserved during the storage in solid form more than 6 months at room temperature, while free Ret-NH2 decomposed in less than 1 week under the same condition."}, "Abca4^−/−Rdh8^−/− mice": {"system": "Abca4^−/−Rdh8^−/− mice", "assay": "Preventing light-induced retinal degeneration with PEG-GFL-NH-Ret in Abca4-/-Rdh8-/- mice", "assay_type": "in vivo, mouse", "method": "Abca4^−/−Rdh8^−/− mice (male and female, 4-week-old, 4-5 mice in each treatment group) were kept in the dark for 48 h before each experiment. Then free Ret-NH2 (0.5 mg, 1.75 μmol) per mouse) or conjugate PEG-GFL-NH-Ret (8.75 mg per mouse, equivalent to 0.5 mg free Ret-NH2 per mouse) was administered by gastric gavage. Mice were illuminated with 10,000 lux light for 30 min at 1 day, 3 days or 6 days after their gavage, and then kept in the dark for 7 days when final retinal evaluations were performed. […] Dark-adapted mice were anesthetized by the same protocol used for OCT recordings. All experimental procedures were performed under a safety light. A contact lens electrode was placed on the eye, and a reference electrode and ground electrode were placed underneath the skin between the two ears and in the tail, respectively. ERGs were recorded with the universal electrophysiologic system UTAS E-3000 (LKC Technologies, Inc., Gaithersburg, Md.). Light intensity calibrated by the manufacturer was computer-controlled. Mice were placed in a Ganzfeld dome, and scotopic responses to flash stimuli were obtained from both eyes simultaneously."}}, "data": [{"smiles": "CC1=C(/C=C/C(C)=C/C=C/C(C)=C/CNC(=O)[C@@H](NC(=O)CN)C(C)C)C(C)(C)CCC1", "note": "[RVG, (S)-2-(2-aminoacetamido)-N-((2E,4E,6E,8E)-3,7-dimethyl-9-(2,6,6-trimethylcyclohex-1-en-1-yl)nona-2,4,6,8-tetraen-1-yl)-3-methylbutanamide]", "values": [{"measurement": "uptake in ARPE19 cells", "setting": "ARPE19 cells", "value": "higher uptake in ARPE19 cells than Ret-NH2"}, {"measurement": "transport through the Caco-2 monolayer", "setting": "Caco-2 cells", "value": "significantly higher transport through the Caco-2 monolayer"}, {"measurement": "degradation on storage", "setting": "[1]; stored in the desiccator under vacuum at r.t. for 2 months", "value": "Less than 5%"}]}, {"smiles": "CC1=C(/C=C/C(C)=C/C=C/C(C)=C/CNC(=O)[C@@H](N)Cc2ccccc2)C(C)(C)CCC1", "note": "[RF, (S)-2-amino-N-((2E,4E,6E,8E)-3,7-dimethyl-9-(2,6,6-trimethylcyclohex-1-en-1-yl)nona-2,4,6,8-tetraen-1-yl)-3-phenylpropanamide]", "values": [{"measurement": "uptake in ARPE19 cells", "setting": "ARPE19 cells", "value": "higher uptake in ARPE19 cells than Ret-NH2"}, {"measurement": "transport through the Caco-2 monolayer", "setting": "Caco-2 cells", "value": "significantly higher transport through the Caco-2 monolayer"}]}, {"smiles": "CC1=C(/C=C/C(C)=C/C=C/C(C)=C/CN)C(C)(C)CCC1", "note": "[Ret-NH2, (2E,4E,6E,8E)-3,7-dimethyl-9-(2,6,6-trimethylcyclohex-1-en-1-yl)nona-2,4,6,8-tetraen-1-amine]", "values": [{"measurement": "liver concentrations of N-retinylamides", "setting": "[2]", "value": "much higher liver concentrations of N-retinylamides than those treated with the conjugate"}, {"measurement": "time to decomposition on storage", "setting": "[3]", "value": "less than 1 week"}, {"measurement": "protection against light-induced retinal degeneration by OCT", "setting": "Abca4^−/−Rdh8^−/− mice; 0.5 mg Ret-NH2 equivalent per mouse gavaged 1 day before light exposure", "value": "effective protection against light-induced retinal degeneration"}, {"measurement": "protection against light-induced retinal degeneration by OCT", "setting": "Abca4^−/−Rdh8^−/− mice; 0.5 mg Ret-NH2 equivalent per mouse gavaged 3 days before light exposure", "value": "did not maintain such protection"}, {"measurement": "protection against light-induced retinal degeneration by OCT", "setting": "Abca4^−/−Rdh8^−/− mice; 0.5 mg Ret-NH2 equivalent per mouse gavaged 6 days before light exposure", "value": "No protective effect"}, {"measurement": "ONL thickness from OCT images", "setting": "Abca4^−/−Rdh8^−/− mice; gavaged 1 day before light exposure", "value": "thickness comparable to that of mice without light illumination"}, {"measurement": "ERG responses", "setting": "Abca4^−/−Rdh8^−/− mice; gavaged 3 days before strong light exposure", "value": "significant loss of ERG activity"}, {"measurement": "ONL thickness from OCT images", "setting": "Abca4^−/−Rdh8^−/− mice; gavaged 3 days before strong light illumination", "value": "significantly reduced"}, {"measurement": "decomposed on storage", "setting": "[1]; desiccator under vacuum at r.t., within 1 week", "value": 95, "unit": "%"}]}]}
